Measured values reported in US10975068B2, “6-aminopyridin-3-yl thiazoles as modulators of RORγT” (Janssen Pharmaceutica NV, priority 2016, dated 2021).

Legend:
[1] = target: human RORγt ligand binding domain (RORγt LBD) (Homo sapiens (Human), UniProt P51449); experiment: RORγt ThermoFluor® assay (thermal shift binding); details: read-out: ThermoFluor® Assay, Kd
Outline: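 Binding was inferred from thermal stabilisation (ΔTm) of the E. coli-expressed RORγt LBD (0.065 mg/mL), monitored by 1,8-ANS (60 μM) emission at 500 nm during a 1 °C/min ramp. Buffer was Hepes 100 mM pH 7.0 with NaCl, GSH and Tween-20.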

full-length human RORγt [2] = target: T1, full-length human RORγt (Homo sapiens (Human), UniProt P51449); experiment: RORγt (full-length human) reporter assay, Conditions A; type: cell-based; details: Conditions A; for IC50: read-out: RORγt (FL) Reporter Assay A, IC50; for inhibition at 6 µM: read-out: RORγt (FL) Reporter Assay A, % inhibition @ 6 μM
Description: RORγt (Full-Length Human) Reporter Assay:
Cells used in this assay were transiently co-transfected with three different plasmids, one expressing the GAL4-DNA binding domain (DBD)-RORγt fusion protein under control of a CMV promoter (NH2-Gal4-DBD:RORC-COOH in pCMV-BD, Stratagene #211342), and two reporter plasmids—the firefly luciferase reporter under control of a GAL4 promoter (pFR-Luc 2×GAL4) and Renilla luciferase reporter under control of CMV promoter (pRL-CMV, Promega # E2261). The full-length coding sequence was used for human RORγt, i.e., nucleotides 142-1635 of human RORγt, transcript variant 2, NCBI Accession: NM_001001523.1 (SEQ ID NO:1). HEK293T cells were plated at 35000 per well in 96-well plate in medium of MEM with 8.6% FBS. After 18-22 hours incubation, the transfection was carried out by using a PEI solution with 170.5 ng total DNA/well (50 ng pCMV-BD-ROR plus 20 ng of pFR-Luc reporter and 0.5 ng of pRL-CMV reporter plus 100 ng Carrier DNA (Clontech #630440) for each well). 4-6 hours after transfection, cells were treated with compounds for overnight in the medium with final concentration of FBS 1.1% and DMSO 0.1%. After overnight (16 to 20 hours) incubation, media were removed and cells were lysed with 20 μL 1× Passive Lysis Buffer (Promega) for 10-15 minutes. Luminescence was measured using a BMG LUMIstar OPTIMA plate reader, after addition of 75 μL/well firefly luciferase buffer, followed by 75 μL/well Renilla luciferase buffer. To calculate the effect of compounds on RORγt activity, firefly values were normalized against values of DMSO only and values of reference compound at saturating concentration, then further normalized against Renilla signals. IC50s were generated by plotting final Renilla normalized data against compound concentration and percent inhibition was calculated against DMSO control.

full-length human RORγt [3] = target: T1, full-length human RORγt; experiment: RORγt (full-length human) reporter assay, Conditions B or C; type: cell-based; details: for inhibition at 3 µM: at 3 μM compound concentration; for IC50: read-out: RORγt (FL) Reporter Assay B or C, IC50; for RORγt (FL) Reporter Assay B or C, % inhibition (value marked *): marked *: footnote not given
Outline: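 Readout is dual luciferase: firefly (GAL4-driven) normalized to DMSO-only and saturating-reference controls, then to CMV-Renilla. Full-length human RORγt fused to GAL4-DBD was transiently expressed in HEK293T; compound exposure ran overnight (16-20 h) starting 4-6 h after transfection, final FBS 1.3%, DMSO 0.1%.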

[4] = read-out: RORγt (FL) Reporter Assay B or C, % inhibition

T1 sequence (P51449 other isoform, or with tags, fused parts or gaps): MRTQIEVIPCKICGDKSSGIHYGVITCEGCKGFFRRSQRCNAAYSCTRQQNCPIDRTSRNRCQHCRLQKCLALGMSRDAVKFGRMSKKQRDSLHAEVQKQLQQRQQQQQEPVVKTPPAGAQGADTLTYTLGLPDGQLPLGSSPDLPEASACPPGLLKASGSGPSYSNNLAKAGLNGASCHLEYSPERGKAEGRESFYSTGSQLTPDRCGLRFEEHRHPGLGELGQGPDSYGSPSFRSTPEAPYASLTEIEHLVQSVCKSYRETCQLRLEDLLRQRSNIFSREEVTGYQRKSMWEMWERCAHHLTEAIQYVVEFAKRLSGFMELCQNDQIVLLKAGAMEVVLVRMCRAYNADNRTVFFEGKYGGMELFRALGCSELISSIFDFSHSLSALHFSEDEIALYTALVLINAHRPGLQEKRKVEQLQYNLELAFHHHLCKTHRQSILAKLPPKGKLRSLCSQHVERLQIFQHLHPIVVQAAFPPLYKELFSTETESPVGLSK
Chain of human RORγt ligand binding domain (RORγt LBD) (P51449 other isoform, or with tags, fused parts or gaps): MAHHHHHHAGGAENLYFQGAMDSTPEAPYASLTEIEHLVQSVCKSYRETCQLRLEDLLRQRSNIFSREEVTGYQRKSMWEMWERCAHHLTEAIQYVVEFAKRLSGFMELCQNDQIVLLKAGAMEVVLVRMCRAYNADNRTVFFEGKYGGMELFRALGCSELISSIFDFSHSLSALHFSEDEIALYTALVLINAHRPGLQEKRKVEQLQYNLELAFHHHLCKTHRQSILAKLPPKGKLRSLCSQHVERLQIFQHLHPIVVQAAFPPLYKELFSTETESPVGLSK

CC(C)(O)CNC(=O)c1nc(C(=O)N2CCC(F)CC2)c(-c2cnc(NC3CCC(F)(F)C3)cc2C(F)(F)F)s1 (stereo not shown) [Example 20, 5-(6-((3,3-Difluorocyclopentyl)amino)-4-(trifluoromethyl)pyridin-3-yl)-4-(4-fluoropiperidine-1-carbonyl)-N-(2-hydroxy-2-methylpropyl)thiazole-2-carboxamide]
Kd [1]: 52 nM
IC50 (full-length human RORγt [2]): 200 nM
inhibition at 6 µM (full-length human RORγt [2]): 110%

CC(C)(O)CNC(=O)c1nc(C(=O)N2CCC(F)CC2)c(-c2cnc(NC3CC(F)(F)C3)cc2C(F)(F)F)s1 [Example 21, 5-(6-((3,3-Difluorocyclobutyl)amino)-4-(trifluoromethyl)pyridin-3-yl)-4-(4-fluoropiperidine-1-carbonyl)-N-(2-hydroxy-2-methylpropyl)thiazole-2-carboxamide]
inhibition at 6 µM (full-length human RORγt [2]): 100%

COc1cc(NC2CCCCC2)ncc1-c1sc(C(=O)NCC(C)(C)O)nc1C(=O)N1CCC(F)CC1 [Example 63, 5-(6-(Cyclohexylamino)-4-methoxypyridin-3-yl)-4-(4-fluoropiperidine-1-carbonyl)-N-(2-hydroxy-2-methylpropyl)thiazole-2-carboxamide]
IC50 (full-length human RORγt [2]): 250 nM
inhibition at 6 µM (full-length human RORγt [2]): 96%

COc1cc(-c2sc(C(=O)NCC(C)(C)O)nc2C(=O)N2CCC(F)CC2)cnc1NC1CCCCC1 [Example 59, 5-(6-(Cyclohexylamino)-5-methoxypyridin-3-yl)-4-(4-fluoropiperidine-1-carbonyl)-N-(2-hydroxy-2-methylpropyl)thiazole-2-carboxamide]
IC50 (full-length human RORγt [2]): 700 nM
inhibition at 6 µM (full-length human RORγt [2]): 88%

CC(C)c1cc(NC2CCCCC2)ncc1-c1sc(C(=O)NCC(C)(C)O)nc1C(=O)N1CCC(F)CC1 [Example 65, 5-(6-(Cyclohexylamino)-4-isopropylpyridin-3-yl)-4-(4-fluoropiperidine-1-carbonyl)-N-(2-hydroxy-2-methylpropyl)thiazole-2-carboxamide]
IC50 (full-length human RORγt [2]): 210 nM
inhibition at 6 µM (full-length human RORγt [2]): 103%

C[C@H]1CCCN1C(=O)c1nc(C(=O)N[C@H]2CCC[C@@H]2O)sc1-c1cnc(NC(C)(C)C)cc1C(F)F [Example 396, 5-[6-(tert-Butylamino)-4-(difluoromethyl)-3-pyridyl]-N-[(1S,2S)-2-hydroxycyclopentyl]-4-[(2S)-2-methylpyrrolidine-1-carbonyl]thiazole-2-carboxamide]
inhibition at 3 µM (full-length human RORγt [3]; [4]): 96%
IC50 (full-length human RORγt [3]): 21 nM
Kd [1]: 1.1 nM

C[C@H](Nc1cc(C(F)(F)F)c(-c2sc(C(=O)N[C@@H]3CCC[C@@H]3O)nc2C(=O)N2CC(F)(F)C[C@@H]2C)cn1)C1CC1 [Example 201, 5-(6-(((S)-1-Cyclopropylethyl)amino)-4-(trifluoromethyl)pyridine-3-yl)-4-((S)-4,4-difluoro-2-methylpyrrolidine-1-carbonyl)-N-((1R,2S)-2-hydroxycyclopentyl)thiazole-2-carboxamide]
RORγt (FL) Reporter Assay B or C, % inhibition (value marked *) (full-length human RORγt [3]; Conditions B or C): 102* %
IC50 (full-length human RORγt [3]; Conditions B or C): 16 nM
Kd [1]: 0.61 nM

C[C@H]1CC(F)(F)CN1C(=O)c1nc(C(=O)NCC(C)(C)O)sc1-c1cnc(NCC2(C(F)(F)F)CCC2)cc1C(F)F [Example 273, 4-[(2S)-4,4-Difluoro-2-methyl-pyrrolidine-1-carbonyl]-5-[4-(difluoromethyl)-6-[[1-(trifluoromethyl)cyclobutyl]methylamino]-3-pyridyl]-N-(2-hydroxy-2-methyl-propyl)thiazole-2-carboxamide]
inhibition at 3 µM (full-length human RORγt [3]; [4]): 102%
IC50 (full-length human RORγt [3]): 5.2 nM
Kd [1]: 0.51 nM

C[C@H]1CCCCN1C(=O)c1nc(C(=O)NC2CCS(=O)(=O)CC2)sc1-c1cnc(NC2CCCC2)cc1C(F)(F)F [Example 28, (S)-5-(6-(Cyclopentylamino)-4-(trifluoromethyl)pyridin-3-yl)-N-(1,1-dioxidotetrahydro-2H-thiopyran-4-yl)-4-(2-methylpiperidine-1-carbonyl)thiazole-2-carboxamide]
IC50 (full-length human RORγt [3]; Conditions B or C): 14 nM
inhibition at 6 µM (full-length human RORγt [3]; read-out: RORγt (FL) Reporter Assay B or C, % inhibition @ 6 μM, Conditions B or C, @ 6 μM): 123%
Kd [1]: 0.17 nM

C[C@H](O)[C@H](C)NC(=O)c1nc(C(=O)N2CCC[C@@H]2C)c(-c2cnc(NC(C)(C)C)cc2C(F)(F)F)s1 (relative stereo) [Example 236, 5-(6-(tert-Butylamino)-4-(trifluoromethyl)pyridin-3-yl)-N-((2S*,3S*)-3-hydroxybutan-2-yl)-4-((S)-2-methylpyrrolidine-1-carbonyl)thiazole-2-carboxamide]
RORγt (FL) Reporter Assay B or C, % inhibition (value marked *) (full-length human RORγt [3]; Conditions B or C): 122* %
IC50 (full-length human RORγt [3]; Conditions B or C): 47 nM
Kd [1]: 1.6 nM

C[C@H]1CCCN1C(=O)c1nc(C(=O)NC(C)(C)CO)sc1-c1cnc(NC(C)(C)C)cc1C(F)(F)F [Example 339, 5-[6-(tert-Butylamino)-4-(trifluoromethyl)-3-pyridyl]-N-(2-hydroxy-1,1-dimethyl-ethyl)-4-[(2S)-2-methylpyrrolidine-1-carbonyl]thiazole-2-carboxamide]
inhibition at 3 µM (full-length human RORγt [3]; [4]): 109%
IC50 (full-length human RORγt [3]): 2.9 nM
Kd [1]: 0.97 nM

CC(C)(O)CNC(=O)c1nc(C(=O)N2C3CCC2CC3)c(-c2cnc(NCC3(C(F)(F)F)CCC3)cc2C(F)(F)F)s1 [Example 119, 4-((1s,4s)-7-Azabicyclo[2.2.1]heptane-7-carbonyl)-N-(2-hydroxy-2-methylpropyl)-5-(4-(trifluoromethyl)-6-(((1-(trifluoromethyl)cyclobutyl)methyl)amino)pyridin-3-yl)thiazole-2-carboxamide]
RORγt (FL) Reporter Assay B or C, % inhibition (value marked *) (full-length human RORγt [3]; Conditions B or C): 108* %
IC50 (full-length human RORγt [3]; Conditions B or C): 17 nM
Kd [1]: 1.5 nM

C[C@H]1CCCN1C(=O)c1nc(C(=O)N[C@H]2CC[C@@H]2O)sc1-c1cnc(NC(C)(C)C)cc1C(F)F (relative stereo) [Example 404, 5-(6-(tert-Butylamino)-4-(difluoromethyl)pyridin-3-yl)-N-((1S*,2S*)-2-hydroxycyclobutyl)-4-((S)-2-methylpyrrolidine-1-carbonyl)thiazole-2-carboxamide]
inhibition at 0.3 µM (full-length human RORγt [3]; at 0.3 μM compound concentration, read-out: RORγt (FL) Reporter Assay B or C, % inhibition): 98%
IC50 (full-length human RORγt [3]): 15 nM
Kd [1]: 3.8 nM

C[C@H]1CCCN1C(=O)c1nc(C(=O)NCC(C)(C)O)sc1-c1cnc(NCC2(C(F)(F)F)CCC2)cc1C(F)(F)F [Example 117, (S)—N-(2-Hydroxy-2-methylpropyl)-4-(2-methylpyrrolidine-1-carbonyl)-5-(4-(trifluoromethyl)-6-(((1-(trifluoromethyl)cyclobutyl)methyl)amino)pyridin-3-yl)thiazole-2-carboxamide]
RORγt (FL) Reporter Assay B or C, % inhibition (value marked *) (full-length human RORγt [3]; Conditions B or C): 107* %
IC50 (full-length human RORγt [3]; Conditions B or C): 3.3 nM
Kd [1]: 0.78 nM

C[C@H](Nc1cc(C(F)F)c(-c2sc(C(=O)N[C@@H]3CCC[C@H]3O)nc2C(=O)N2CCC[C@@H]2C)cn1)C(F)(F)F [Example 283, 5-(4-(Difluoromethyl)-6-(((S)-1,1,1-trifluoropropan-2-yl)amino)pyridin-3-yl)-N-((1R,2R)-2-hydroxycyclopentyl)-4-((S)-2-methylpyrrolidine-1-carbonyl)thiazole-2-carboxamide]
inhibition at 3 µM (full-length human RORγt [3]; [4]): 106%
IC50 (full-length human RORγt [3]): 54 nM
Kd [1]: 1.9 nM

C[C@@H](NC(=O)c1nc(C(=O)N2C3CCC2CC3)c(-c2cnc(NC3(C)CCC3)cc2C(F)F)s1)C(C)(C)O [Example 329, 4-((1s,4s)-7-Azabicyclo[2.2.1]heptane-7-carbonyl)-5-(4-(difluoromethyl)-6-((1-methylcyclobutyl)amino)pyridin-3-yl)-N—((R)-3-hydroxy-3-methylbutan-2-yl)thiazole-2-carboxamide]
inhibition at 3 µM (full-length human RORγt [3]; [4]): 89%
IC50 (full-length human RORγt [3]): 38 nM
Kd [1]: 1.7 nM

CC(C)[C@@H](C)NC(=O)c1nc(C(=O)N2CCC[C@@H]2C)c(-c2cnc(NC(C)(C)C)cc2C(F)(F)F)s1 [Example 341, 5-[6-(tert-Butylamino)-4-(trifluoromethyl)-3-pyridyl]-N-[(1R)-1,2-dimethylpropyl]-4-[(2S)-2-methylpyrrolidine-1-carbonyl]thiazole-2-carboxamide]
inhibition at 3 µM (full-length human RORγt [3]; [4]): 107%
IC50 (full-length human RORγt [3]): 5.7 nM
Kd [1]: 4 nM
